Measurements taken from BigSolDB 2.1.

CC(C)COc1ccccc1B(O)O
Conditions | solubility (mole fraction)
in 3-pentanone, 295.65 K | 0.301
in 3-pentanone, 296.55 K | 0.288
in 3-pentanone, 297.65 K | 0.304
in 3-pentanone, 298.55 K | 0.324
in 3-pentanone, 300.65 K | 0.306
in 3-pentanone, 300.85 K | 0.322
in 3-pentanone, 302.55 K | 0.322
in 3-pentanone, 303.05 K | 0.338
in 3-pentanone, 305.35 K | 0.356
in 3-pentanone, 306.05 K | 0.342
in 3-pentanone, 308.35 K | 0.362
in 3-pentanone, 309.05 K | 0.378
in 3-pentanone, 312.05 K | 0.376
in 3-pentanone, 312.25 K | 0.396
in 3-pentanone, 313.85 K | 0.426
in 3-pentanone, 318.15 K | 0.407
in 3-pentanone, 318.85 K | 0.444
in 3-pentanone, 319.15 K | 0.478
in 3-pentanone, 319.55 K | 0.455
in 3-pentanone, 322.55 K | 0.482
in 3-pentanone, 324.85 K | 0.503
in 3-pentanone, 325.55 K | 0.526
in 3-pentanone, 328.85 K | 0.547
in 3-pentanone, 331.25 K | 0.609
in 3-pentanone, 337.25 K | 0.67
in 3-pentanone, 345.35 K | 0.766
in acetone, 293.65 K | 0.281
in acetone, 300.35 K | 0.314
in acetone, 303.65 K | 0.339
in acetone, 309.35 K | 0.372
in acetone, 315.65 K | 0.411
in acetone, 320.75 K | 0.467
in acetone, 327.35 K | 0.533
in acetone, 333.95 K | 0.611
in acetone, 337.75 K | 0.639
in acetone, 341.35 K | 0.695
in acetone, 344.45 K | 0.737
in acetone, 347.75 K | 0.8
in acetone, 350.55 K | 0.823
in acetone, 353.65 K | 0.872
in acetone, 355.75 K | 0.901
in chloroform, 295.15 K | 0.277
in chloroform, 299.15 K | 0.307
in chloroform, 304.45 K | 0.338
in chloroform, 308.15 K | 0.361
in chloroform, 313.15 K | 0.402
in chloroform, 317.65 K | 0.432
in chloroform, 320.65 K | 0.465
in chloroform, 325.75 K | 0.514
in chloroform, 328.65 K | 0.547
in chloroform, 335.05 K | 0.618
in chloroform, 336.15 K | 0.637
in chloroform, 341.15 K | 0.7
in chloroform, 344.75 K | 0.715
in chloroform, 348.45 K | 0.774
in chloroform, 350.25 K | 0.822
in chloroform, 352.15 K | 0.866
in chloroform, 355.15 K | 0.895
in dipropyl ether, 294.15 K | 0.157
in dipropyl ether, 300.35 K | 0.185
in dipropyl ether, 304.35 K | 0.209
in dipropyl ether, 311.05 K | 0.259
in dipropyl ether, 316.45 K | 0.305
in dipropyl ether, 320.15 K | 0.345
in dipropyl ether, 325.05 K | 0.405
in dipropyl ether, 329.15 K | 0.446
in dipropyl ether, 330.15 K | 0.463
in dipropyl ether, 332.15 K | 0.499
in dipropyl ether, 335.05 K | 0.532
in dipropyl ether, 338.65 K | 0.606
in dipropyl ether, 340.75 K | 0.641
in dipropyl ether, 345.65 K | 0.73
in dipropyl ether, 348.75 K | 0.764
in dipropyl ether, 351.65 K | 0.813
in dipropyl ether, 353.05 K | 0.857
in methylcyclohexane, 300.05 K | 0.0138
in methylcyclohexane, 305.15 K | 0.0169
in methylcyclohexane, 305.85 K | 0.0208
in methylcyclohexane, 309.15 K | 0.0262
in methylcyclohexane, 312.25 K | 0.0333
in methylcyclohexane, 315.55 K | 0.046
in methylcyclohexane, 318.15 K | 0.0589
in methylcyclohexane, 321.95 K | 0.0885
in methylcyclohexane, 323.35 K | 0.103
in methylcyclohexane, 324.35 K | 0.118
in methylcyclohexane, 325.95 K | 0.139
in methylcyclohexane, 327.05 K | 0.163
in methylcyclohexane, 329.05 K | 0.198
in methylcyclohexane, 331.25 K | 0.21
in methylcyclohexane, 331.85 K | 0.236
in methylcyclohexane, 332.95 K | 0.253
in methylcyclohexane, 334.95 K | 0.328
in methylcyclohexane, 336.05 K | 0.354
in methylcyclohexane, 336.95 K | 0.371
in methylcyclohexane, 340.05 K | 0.479
in methylcyclohexane, 343.75 K | 0.567
in methylcyclohexane, 344.45 K | 0.628
in methylcyclohexane, 349.15 K | 0.731

CC(C)COc1cccc(B(O)O)c1
Conditions | solubility (mole fraction)
in 3-pentanone, 303.65 K | 0.191
in 3-pentanone, 307.15 K | 0.204
in 3-pentanone, 314.15 K | 0.233
in 3-pentanone, 318.75 K | 0.258
in 3-pentanone, 335.65 K | 0.289
in 3-pentanone, 339.15 K | 0.329
in 3-pentanone, 343.15 K | 0.354
in 3-pentanone, 348.15 K | 0.396
in 3-pentanone, 351.15 K | 0.443
in 3-pentanone, 353.65 K | 0.488
in chloroform, 297.15 K | 0.018
in chloroform, 302.65 K | 0.0229
in chloroform, 306.65 K | 0.0278
in chloroform, 310.25 K | 0.0327
in chloroform, 313.95 K | 0.0408
in chloroform, 318.35 K | 0.0507
in chloroform, 323.05 K | 0.067
in chloroform, 328.55 K | 0.0899
in chloroform, 331.75 K | 0.131
in chloroform, 333.25 K | 0.19
in dipropyl ether, 298.65 K | 0.103
in dipropyl ether, 302.95 K | 0.116
in dipropyl ether, 305.15 K | 0.126
in dipropyl ether, 308.45 K | 0.137
in dipropyl ether, 312.15 K | 0.155
in dipropyl ether, 314.65 K | 0.172
in dipropyl ether, 319.75 K | 0.198
in dipropyl ether, 323.45 K | 0.232
in dipropyl ether, 329.95 K | 0.275
in dipropyl ether, 333.95 K | 0.34
in methylcyclohexane, 305.95 K | 0.0033
in methylcyclohexane, 308.45 K | 0.0049
in methylcyclohexane, 309.95 K | 0.0065
in methylcyclohexane, 315.75 K | 0.0082
in methylcyclohexane, 318.65 K | 0.0147
in methylcyclohexane, 322.65 K | 0.0343
in methylcyclohexane, 325.25 K | 0.0556
in methylcyclohexane, 327.05 K | 0.0817
in methylcyclohexane, 329.65 K | 0.132
in methylcyclohexane, 331.75 K | 0.154

CC(C)COc1ccc(B(O)O)cc1
Conditions | solubility (mole fraction)
in 3-pentanone, 294.65 K | 0.114
in 3-pentanone, 298.65 K | 0.128
in 3-pentanone, 303.75 K | 0.146
in 3-pentanone, 307.25 K | 0.172
in 3-pentanone, 309.35 K | 0.187
in 3-pentanone, 313.65 K | 0.205
in 3-pentanone, 317.65 K | 0.232
in 3-pentanone, 325.55 K | 0.265
in 3-pentanone, 331.35 K | 0.31
in 3-pentanone, 334.65 K | 0.335
in 3-pentanone, 339.65 K | 0.367
in 3-pentanone, 349.65 K | 0.411
in acetone, 294.45 K | 0.127
in acetone, 296.85 K | 0.132
in acetone, 299.75 K | 0.139
in acetone, 304.75 K | 0.149
in acetone, 309.45 K | 0.16
in acetone, 312.25 K | 0.171
in acetone, 318.75 K | 0.19
in acetone, 322.55 K | 0.204
in acetone, 325.35 K | 0.218
in chloroform, 296.25 K | 0.0212
in chloroform, 299.95 K | 0.0253
in chloroform, 303.65 K | 0.0304
in chloroform, 308.65 K | 0.0367
in chloroform, 309.65 K | 0.0415
in chloroform, 310.85 K | 0.0471
in chloroform, 312.65 K | 0.0555
in chloroform, 316.35 K | 0.0668
in chloroform, 319.65 K | 0.0785
in chloroform, 322.35 K | 0.0936
in chloroform, 328.75 K | 0.115
in chloroform, 334.25 K | 0.146
in chloroform, 338.65 K | 0.202
in chloroform, 338.75 K | 0.183
in chloroform, 343.15 K | 0.254
in chloroform, 346.65 K | 0.279
in chloroform, 352.65 K | 0.324
in chloroform, 353.85 K | 0.335
in dipropyl ether, 296.65 K | 0.0352
in dipropyl ether, 303.15 K | 0.0416
in dipropyl ether, 308.15 K | 0.0497
in dipropyl ether, 308.45 K | 0.0587
in dipropyl ether, 312.65 K | 0.0705
in dipropyl ether, 315.65 K | 0.082
in dipropyl ether, 320.15 K | 0.0995
in dipropyl ether, 325.55 K | 0.128
in dipropyl ether, 330.05 K | 0.165
in dipropyl ether, 333.15 K | 0.196
in dipropyl ether, 336.65 K | 0.229
in dipropyl ether, 339.45 K | 0.261
in dipropyl ether, 344.15 K | 0.314
in dipropyl ether, 348.65 K | 0.345
in methylcyclohexane, 318.55 K | 0.0096
in methylcyclohexane, 323.65 K | 0.0191
in methylcyclohexane, 328.45 K | 0.03
in methylcyclohexane, 334.75 K | 0.0514
in methylcyclohexane, 343.55 K | 0.118
in methylcyclohexane, 344.65 K | 0.204
in methylcyclohexane, 345.55 K | 0.266
in methylcyclohexane, 350.95 K | 0.322
